Columns and labels:
[1] = compound: COc1cccc(OCCCN)c1-c1cc(Nc2cnc(C#N)cn2)n[nH]1 [Prexasertib]; details: max 1 µM
In short: (§1)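 Cancer cell lines in 1536-well plates (7.5 μl DMEM/F12 or RPMI, 10% FBS) were held 24 hours at 37°C and 5% CO2 and then dosed for 72 hours at a final DMSO of typically 0.2%. Viability was taken from CellTiter-Glo 2.0 luminescence, scaled between blank-well and DMSO-well means. Curves were fitted as two-parameter logistic models with a non-linear mixed effects model, from which the single-agent IC50 was taken.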

[2] = compound: C[C@@H](c1ccc2nccn2c1)n1nnc2ncc(-c3cnn(C)c3)nc21 [Savolitinib]; details: max 1 µM
In short: as §1

[3] = compound: COc1cc2ncnc(Nc3ccc(F)c(Cl)c3)c2cc1OCCCN1CCOCC1 [Gefitinib]; details: max 10 µM
In short: as §1

[4] = compound: NC1(c2ccc(-c3nc4ccn5c(=O)[nH]nc5c4cc3-c3ccccc3)cc2)CCC1 [MK-2206]; details: max 10 µM
In short: as §1

[5] = compound: Cc1cc2ncnn2cc1Nc1ncc2c(n1)n(C1CCOCC1)c(=O)n2C [AZD7648]; details: max 10 µM
In short: as §1

[6] = compound: CC1=C(C(=CC=C1)Cl)NC(=O)C2=CN=C(S2)NC3=CC(=NC(=N3)C)N4CCN(CC4)CCO [Dasatinib]; details: max 2 µM
In short: as §1

[7] = compound: COc1nnc2ccc(N3CCC(c4ccc(OCCN5CCN(C)C(=O)[C@H]5C)cc4)CC3)nn12 [AZD5153]; details: max 1 µM
In short: as §1

[8] = compound: C[C@@H](Nc1cc(F)cc(F)c1)c1cc(C(=O)N(C)C)cc2c(=O)cc(N3CCOCC3)oc12 [AZD8186]; details: max 10 µM
In short: as §1

[9] = compound: O=C(c1cc(Cc2n[nH]c(=O)c3ccccc23)ccc1F)N1CCN(C(=O)C2CC2)CC1 [Olaparib]; details: max 10 µM
In short: as §1

[10] = compound: CN(CC[C@H](CSC1=CC=CC=C1)NC2=C(C=C(C=C2)S(=O)(=O)NC(=O)C3=CC=C(C=C3)N4CCC(CC4)[C@H](C5=CC=CC=C5C6=CC=C(C=C6)Cl)O)S(=O)(=O)C(F)(F)F)CCO [AZD4320]; details: max 1 µM
In short: as §1

[11] = compound: CC(=O)c1c(C)c2cnc(Nc3ccc(N4CCNCC4)cn3)nc2n(C2CCCC2)c1=O [Palbociclib]; details: max 10 µM
In short: as §1

[12] = compound: CC(C)n1c(=O)n(C)c2cnc3cc(F)c(-c4ccc(OCCCN5CCCCC5)nc4)cc3c21 [AZD1390]; details: max 0.3 µM
In short: as §1

[13] = compound: C1CC(C1)(C(=O)[O-])C(=O)[O-].N.N.[Pt+2] [Carboplatin]; details: max 10 µM
In short: as §1

[14] = compound: CS(=O)(=O)CCNCc1ccc(-c2ccc3ncnc(Nc4ccc(OCc5cccc(F)c5)c(Cl)c4)c3c2)o1 [Lapatinib]; details: max 10 µM
In short: as §1

[15] = compound: Nc1ccn([C@@H]2O[C@H](CO)[C@@H](O)C2(F)F)c(=O)n1 [Gemcitabine]; details: max 0.3 µM
In short: as §1

[16] = compound: COc1cccc2c1C(=O)c1c(O)c3c(c(O)c1C2=O)C[C@@](O)(C(=O)CO)C[C@@H]3O[C@H]1C[C@H](N)[C@H](O)[C@H](C)O1 [Doxorubicin]; details: max 1 µM
In short: as §1

[17] = compound: CC(=O)O[C@H]1C(=O)[C@@]2(C)[C@H]([C@H](OC(=O)c3ccccc3)[C@]3(O)C[C@H](OC(=O)[C@H](O)[C@@H](NC(=O)c4ccccc4)c4ccccc4)C(C)=C1C3(C)C)[C@]1(OC(C)=O)CO[C@@H]1C[C@@H]2O [Paclitaxel]; details: max 3 µM
In short: as §1

[18] = compound: COc1cc(Nc2ncc3c(n2)-c2ccc(Cl)cc2C(c2c(F)cccc2OC)=NC3)ccc1C(=O)O [Alisertib]; details: max 10 µM
In short: as §1

[19] = compound: CN(C)CCCOc1ccc(-c2ccc3ncc4c(c3c2)n(C2CCOCC2)c(=O)n4C)cn1 [AZD0156]; details: max 3 µM
In short: as §1

[20] = compound: C1CN(CCC1(C(=O)N[C@@H](CCO)C2=CC=C(C=C2)Cl)N)C3=NC=NC4=C3C=CN4 [AZD5363]; details: max 10 µM
In short: as §1

[21] = compound: O=c1[nH]cc(F)c(=O)[nH]1 [5-Fluorouracil]; details: max 20 µM
In short: as §1

[22] = compound: C[C@@H]1COCCN1C2=NC(=NC(=C2)C3(CC3)[S@](=N)(=O)C)C4=C5C=CNC5=NC=C4 [AZD6738]; details: max 10 µM
In short: as §1

[23] = compound: CC(=O)Nc1cccc(-n2c(=O)n(C3CC3)c(=O)c3c(Nc4ccc(I)cc4F)n(C)c(=O)c(C)c32)c1 [Trametinib]; details: max 1 µM
In short: as §1

[24] = compound: Cc1nc(-c2cn3c(n2)-c2ccc(-c4cnn(C(C)(C)C(N)=O)c4)cc2OCC3)n(C(C)C)n1 [Taselisib]; details: max 10 µM
In short: as §1

[25] = compound: C=CCn1c(=O)c2cnc(Nc3ccc(N4CCN(C)CC4)cc3)nc2n1-c1cccc(C(C)(C)O)n1 [AZD1775]; details: max 3 µM
In short: as §1

[26] = compound: CCc1c2c(nc3ccc(O)cc13)-c1cc3c(c(=O)n1C2)COC(=O)[C@]3(O)CC [SN-38]; details: max 0.3 µM
In short: as §1

[27] = compound: N#Cc1cnc(Nc2cc(NC[C@H]3CNCCO3)c(C(F)(F)F)cn2)cn1 [SRA737]; details: max 10 µM
In short: as §1

[28] = compound: C[C@@H](Oc1cc(-c2cnn(C3CCNCC3)c2)cnc1N)c1c(Cl)ccc(F)c1Cl [Crizotinib]; details: max 10 µM
In short: as §1

[29] = compound: O=C(Nc1ccc2[nH]nc(-c3ccncc3)c2c1)[C@@H]1CCN(CC(=O)N2CCN(c3ccc(-c4ncccn4)cc3)CC2)C1; details: max 5 µM
In short: as §1

[30] = compound: CC1(C)CCC(CN2CCN(c3ccc(C(=O)NS(=O)(=O)c4ccc(NCC5CCOCC5)c([N+](=O)[O-])c4)c(Oc4cnc5[nH]ccc5c4)c3)CC2)=C(c2ccc(Cl)cc2)C1 [Venetoclax]; details: max 1 µM
In short: as §1

[31] = compound: Cn1cnc2c(F)c(Nc3ccc(Br)cc3Cl)c(C(=O)NOCCO)cc21 [Selumetinib]; details: max 10 µM
In short: as §1

[32] = compound: CCN(CCO)CCCOc1ccc2c(Nc3cc(CC(=O)Nc4cccc(F)c4)[nH]n3)ncnc2c1 [AZD2811]; details: max 1 µM
In short: as §1

[33] = compound: CC1=CN2[C@@H](C1)C=NC3=CC(=C(C=C3C2=O)OC)OCCCCCOC4=C(C=C5C(=C4)N=C[C@@H]6CC(=CN6C5=O)C)OC [SG3199]; details: max 0.001 µM
In short: as §1

[34] = compound: Cc1c2c(nn1C)CSCc1cc(n(C)n1)CSc1cc(c3ccccc3c1)OCCCc1c(C(=O)O)n(C)c3c-2c(Cl)ccc13 [AZD5991]; details: max 1 µM
In short: as §1

[35] = compound: COc1cc([C@@H]2c3cc4c(cc3[C@@H](O[C@@H]3O[C@@H]5CO[C@@H](C)O[C@H]5[C@H](O)[C@H]3O)[C@H]3COC(=O)[C@H]23)OCO4)cc(OC)c1O [Etoposide]; details: max 10 µM
In short: as §1

| Cell Line | IC50, cell viability 72 h [1] [nM] | IC50, cell viability 72 h [2] [nM] | IC50, cell viability 72 h [3] [nM] | IC50, cell viability 72 h [4] [nM] | IC50, cell viability 72 h [5] [nM] | IC50, cell viability 72 h [6] [nM] | IC50, cell viability 72 h [7] [nM] | IC50, cell viability 72 h [8] [nM] | IC50, cell viability 72 h [9] [nM] | IC50, cell viability 72 h [10] [nM] | IC50, cell viability 72 h [11] [nM] | IC50, cell viability 72 h [12] [nM] | IC50, cell viability 72 h [13] [nM] | IC50, cell viability 72 h [14] [nM] | IC50, cell viability 72 h [15] [nM] | IC50, cell viability 72 h [16] [nM] | IC50, cell viability 72 h [17] [nM] | IC50, cell viability 72 h [18] [nM] | IC50, cell viability 72 h [19] [nM] | IC50, cell viability 72 h [20] [nM] | IC50, cell viability 72 h [21] [nM] | IC50, cell viability 72 h [22] [nM] | IC50, cell viability 72 h [23] [nM] | IC50, cell viability 72 h [24] [nM] | IC50, cell viability 72 h [25] [nM] | IC50, cell viability 72 h [26] [nM] | IC50, cell viability 72 h [27] [nM] | IC50, cell viability 72 h [28] [nM] | IC50, cell viability 72 h [29] [nM] | IC50, cell viability 72 h [30] [nM] | IC50, cell viability 72 h [31] [nM] | IC50, cell viability 72 h [32] [nM] | IC50, cell viability 72 h [33] [nM] | IC50, cell viability 72 h [34] [nM] | IC50, cell viability 72 h [35] [nM] |
| --- | --- | --- | --- | --- | --- | --- | --- | --- | --- | --- | --- | --- | --- | --- | --- | --- | --- | --- | --- | --- | --- | --- | --- | --- | --- | --- | --- | --- | --- | --- | --- | --- | --- | --- | --- |
| NTERA-2-cl-D1 (Other Solid Carcinomas) | > 1000 | > 1000 | > 10000 | > 10000 | > 10000 | > 2000 | 532 | > 10000 | > 10000 | > 1000 | > 10000 | > 300 | > 10000 | > 10000 | > 300 | 23.6 | 415 | 453 | > 3000 | > 10000 | > 20000 | > 10000 | > 1000 | > 10000 | > 3000 | 5.92 | > 10000 | > 10000 | > 5000 | > 1000 | > 10000 | > 1000 | > 1 | > 1000 | > 10000 |
| OVKATE (Ovarian Carcinoma) | > 1000 | > 1000 | > 10000 | > 10000 | > 10000 | > 2000 | > 1000 | > 10000 | > 10000 | > 1000 | > 10000 | > 300 | > 10000 | > 10000 | > 300 | > 1000 | > 3000 | > 10000 | > 3000 | > 10000 | > 20000 | > 10000 | > 1000 | > 10000 | > 3000 | > 300 | > 10000 | > 10000 | > 5000 | > 1000 | > 10000 | > 1000 | > 1 | > 1000 | > 10000 |
| RPMI-8402 (T-Lymphoblastic Leukemia) | 5.84 | > 1000 | 9050 | 1150 | > 10000 | > 2000 | 63.1 | 5450 | > 10000 | 247 | 300 | > 300 | > 10000 | 4400 | 23.5 | 68.1 | 6.86 | 214 | > 3000 | 2500 | 9930 | 1300 | > 1000 | 1030 | 183 | 2.43 | 1320 | 1630 | 4090 | > 1000 | > 10000 | 33.3 | > 1 | 504 | 158 |
| SBC-3 (Small Cell Lung Carcinoma) | 136 | > 1000 | > 10000 | > 10000 | > 10000 | > 2000 | 64.6 | > 10000 | > 10000 | > 1000 | 4820 | > 300 | > 10000 | > 10000 | 14.7 | 71.7 | 3.8 | 421 | > 3000 | > 10000 | 4540 | 5850 | > 1000 | 2580 | 822 | 2.25 | > 10000 | 3450 | > 5000 | > 1000 | > 10000 | 636 | > 1 | > 1000 | 313 |
| SK-MEL-24 (Melanoma) | 575 | > 1000 | > 10000 | > 10000 | > 10000 | > 2000 | > 1000 | > 10000 | > 10000 | > 1000 | > 10000 | > 300 | > 10000 | > 10000 | 193 | 701 | 738 | > 10000 | > 3000 | > 10000 | > 20000 | > 10000 | 46.3 | 5000 | > 3000 | 23.9 | > 10000 | > 10000 | 3270 | > 1000 | 2770 | > 1000 | > 1 | > 1000 | > 10000 |

From the supplement of paper PMC11061612
